Where a SMILES comes first, the peptide text is derived from it. The star is where a group is joined. Doxorubicin(3'-N) = COc1cccc2c1C(=O)c1c(O)c3c(c(O)c1C2=O)C[C@@](O)(C(=O)CO)C[C@@H]3O[C@H]1C[C@H](N*)[C@H](O)[C@H](C)O1; Mal(CH2CH2O)6CH2CH2CO = O=C1C=CC(=O)N1CCOCCOCCOCCOCCOCCOCCC(=O)*; MaleimidoPEG4propanoyl = O=C1C=CC(=O)N1CCOCCOCCOCCOCCC(=O)*; Hexanoyl(6-maleimido) = O=C1C=CC(=O)N1CCCCCC(=O)*; Propanoyl(3-maleimido) = O=C1C=CC(=O)N1CCC(=O)*; PEG6 = NCCOCCOCCOCCOCCOCCOCCC(=O)O; PEG4 = NCCOCCOCCOCCOCCC(=O)O
System: Human hepatoma HepG2 cells
Assay: Human liver cancer HepG2 tumors in nude mice
Type: in vivo
Settings: 54 umol/kg IV once a week for 4 weeks
Protocol: • 1. Animals: nude mice aged 6-8 weeks, all female. • 2. Preparation of tumor models
Human hepatoma HepG2 cells were purchased from ATCC and identified according to the instructions provided. […] Randomization was performed when the tumor size reached 100 mm^3.
Treatment was then initiated, and the day of initiation of treatment was counted as Day 1. • 3) Treatment process
According to the clinical application of the corresponding compound, the drug was administered intravenously (IV). The compound and the control drug were administered at a dose of 54 umol/kg, and DOX could only be administered at a dose of 18 umol/kg due to toxicity limitations.
With `COc1cccc2c1C(=O)c1c(O)c3c(c(O)c1C2=O)C[C@@](O)(C(=O)CO)C[C@@H]3O[C@H]1C[C@H](NC(=O)[C@H](CC(C)C)NC(=O)[C@H](CC(N)=O)NC(=O)[C@H](C)NC(=O)[C@H](C)NC(=O)CCOCCOCCOCCOCCN2C(=O)C=CC2=O)[C@H](O)[C@H](C)O1` [QHL-011-DOX] (MaleimidoPEG4propanoyl-AANL-{Doxorubicin(3'-N)}) the “Tumor volume (mm^3) Day 28” value was 98.1 ± 48.4 mm^3.
In the case of `COc1cccc2c1C(=O)c1c(O)c3c(c(O)c1C2=O)C[C@@](O)(C(=O)CO)C[C@@H]3O[C@H]1C[C@H](NC(=O)[C@H](CC(C)C)NC(=O)[C@H](CC(N)=O)NC(=O)[C@H](C)NC(=O)[C@H](C)NC(=O)CCOCCOCCOCCOCCOCCOCCN2C(=O)C=CC2=O)[C@H](O)[C@H](C)O1` [QHL-012-DOX] ({Mal(CH2CH2O)6CH2CH2CO}-AANL-{Doxorubicin(3'-N)}), the “Tumor volume (mm^3) Day 28” value is reported as 197.4 ± 104.5 mm^3.

Same assay, conditions: Mus musculus, HepG2, iv, 672 h, read-out: Tumor inhibition rate (%) Day 28
`COc1cccc2c1C(=O)c1c(O)c3c(c(O)c1C2=O)C[C@@](O)(C(=O)CO)C[C@@H]3O[C@H]1C[C@H](NC(=O)[C@H](CC(C)C)NC(=O)[C@H](CC(N)=O)NC(=O)[C@H](C)NC(=O)[C@H](C)NC(=O)CCOCCOCCOCCOCCN2C(=O)C=CC2=O)[C@H](O)[C@H](C)O1` [QHL-011-DOX] (MaleimidoPEG4propanoyl-AANL-{Doxorubicin(3'-N)}) showed an inhibition in vivo at 54 µmol/kg of 96.6%.
Compound `COc1cccc2c1C(=O)c1c(O)c3c(c(O)c1C2=O)C[C@@](O)(C(=O)CO)C[C@@H]3O[C@H]1C[C@H](NC(=O)[C@H](CC(C)C)NC(=O)[C@H](CC(N)=O)NC(=O)[C@H](C)NC(=O)[C@H](C)NC(=O)CCOCCOCCOCCOCCNC(=O)CCN2C(=O)C=CC2=O)[C@H](O)[C@H](C)O1` [QHL-093-DOX] ({Propanoyl(3-maleimido)-PEG4}-AANL-{Doxorubicin(3'-N)}) has an inhibition in vivo at 54 µmol/kg of 94.2%.
In the case of `COc1cccc2c1C(=O)c1c(O)c3c(c(O)c1C2=O)C[C@@](O)(C(=O)CO)C[C@@H]3O[C@H]1C[C@H](NC(=O)[C@H](CC(C)C)NC(=O)[C@H](CC(N)=O)NC(=O)[C@H](C)NC(=O)[C@H](C)NC(=O)[C@H](CC(=O)O)NC(=O)CCCCCN2C(=O)C=CC2=O)[C@H](O)[C@H](C)O1` [QHL-120-DOX] ({Hexanoyl(6-maleimido)}-DAANL-{Doxorubicin(3'-N)}), the inhibition in vivo at 54 µmol/kg is reported as 92.8%.
Compound `COc1cccc2c1C(=O)c1c(O)c3c(c(O)c1C2=O)C[C@@](O)(C(=O)CO)C[C@@H]3O[C@H]1C[C@H](NC(=O)[C@H](CC(C)C)NC(=O)[C@H](CC(N)=O)NC(=O)[C@H](C)NC(=O)[C@H](C)NC(=O)CCOCCOCCOCCOCCOCCOCCNC(=O)CCN2C(=O)C=CC2=O)[C@H](O)[C@H](C)O1` [QHL-096-DOX] ({Propanoyl(3-maleimido)-PEG6}-AANL-{Doxorubicin(3'-N)}) has an inhibition in vivo at 54 µmol/kg of 100%.
`COc1cccc2c1C(=O)c1c(O)c3c(c(O)c1C2=O)C[C@@](O)(C(=O)CO)C[C@@H]3O[C@H]1C[C@H](NC(=O)[C@H](CC(C)C)NC(=O)[C@H](CC(N)=O)NC(=O)[C@H](C)NC(=O)[C@H](C)NC(=O)CCOCCOCCOCCNC(=O)CCN2C(=O)C=CC2=O)[C@H](O)[C@H](C)O1` [QHL-090-DOX] gave an inhibition in vivo at 54 µmol/kg of 100%.
Work on `COc1cccc2c1C(=O)c1c(O)c3c(c(O)c1C2=O)C[C@@](O)(C(=O)CO)C[C@@H]3O[C@H]1C[C@H](NC(=O)[C@H](CC(C)C)NC(=O)[C@H](CC(N)=O)NC(=O)[C@H](C)NC(=O)[C@H](C)NC(=O)CCOCCOCCOCCOCCOCCOCCN2C(=O)C=CC2=O)[C@H](O)[C@H](C)O1` [QHL-012-DOX] ({Mal(CH2CH2O)6CH2CH2CO}-AANL-{Doxorubicin(3'-N)}) yielded an inhibition in vivo at 54 µmol/kg of 93.2%.

System: not listed separately
Assay: Water solubility test (observation and HPLC)
Type: physicochemical
Settings: thermodynamic from solid
Protocol: The compounds prepared in accordance with the examples of the disclosure and the reference compounds C1, C2, C3 and C4 were lyophilized (−70° C.).
With `CCOCc1nc2c(NC(=O)OCc3ccc(NC(=O)[C@@H](CC(N)=O)NC(=O)[C@H](C)NC(=O)[C@H](C)NC(=O)CCOCCOCCOCCNC(=O)CCN4C(=O)C=CC4=O)cc3)nc3ccccc3c2n1CC(C)(C)O` [QHL-089-Resiquimod] the solubility was over 10000 µg/mL.
Compound `C[C@@H](NC(=O)CCOCCOCCNC(=O)CCN1C(=O)C=CC1=O)C(=O)N[C@H](C)C(=O)N[C@H](CC(N)=O)C(=O)Nc1ccc(COC(=O)N2CC(C)(C)c3ccc(NC(=O)c4cccnc4NCc4ccncc4)cc32)cc1` [QHL-089-Motesani] has a solubility of over 20000 µg/mL.
`C[C@@H](NC(=O)CCOCCOCCNC(=O)CCN1C(=O)C=CC1=O)C(=O)N[C@H](C)C(=O)N[C@H](CC(N)=O)C(=O)Nc1ccc(COC(=O)Nc2c(-c3nc4ccc(N5CCN(C)CC5)cc4[nH]3)c(=O)[nH]c3cccc(F)c23)cc1` [QHL-086 - Dovitinib] showed a solubility of over 20000 µg/mL.
`C[C@@H](NC(=O)CCOCCOCCNC(=O)CCN1C(=O)C=CC1=O)C(=O)N[C@H](C)C(=O)N[C@H](CC(N)=O)C(=O)Nc1ccc(COC(=O)Nc2nccc(-c3sc(C(C)(C)C)nc3-c3cccc(NS(=O)(=O)c4c(F)cccc4F)c3F)n2)cc1` [QHL-086-dabrafenib] gave a solubility of over 20000 µg/mL.
For `CCOCc1nc2c(NC(=O)OCc3ccc(NC(=O)[C@H](CC(N)=O)NC(=O)[C@H](C)NC(=O)[C@H](C)NC(=O)CCOCCOCCOCCOCCOCCOCCN4C(=O)C=CC4=O)cc3)nc3ccccc3c2n1CC(C)(C)O` [QHL-008-Resiquimod], the solubility was over 10000 µg/mL.
`CCOCc1nc2c(NC(=O)OCc3ccc(NC(=O)[C@@H](CC(N)=O)NC(=O)[C@H](C)NC(=O)[C@H](C)NC(=O)CCOCCOCCOCCN4C(=O)C=CC4=O)cc3)nc3ccccc3c2n1CC(C)(C)O` [QHL-006-Resiquimod] showed a solubility of over 10000 µg/mL.
`CCOCc1nc2c(NC(=O)OCc3ccc(NC(=O)C(CC(N)=O)NC(=O)[C@H](C)NC(=O)[C@H](C)NC(=O)CCOCCOCCOCCOCCNC(=O)CCN4C(=O)C=CC4=O)cc3)nc3ccccc3c2n1CC(C)(C)O` (stereo partly shown) [QHL-092-Resiquimod] showed a solubility of over 10000 µg/mL.
`CCOCc1nc2c(NC(=O)OCc3ccc(NC(=O)[C@H](CC(N)=O)NC(=O)[C@H](C)NC(=O)[C@H](C)NC(=O)CCOCCOCCNC(=O)CCN4C(=O)C=CC4=O)cc3)nc3ccccc3c2n1CC(C)(C)O` [QHL-086-Resiquimod] gave a solubility of over 10000 µg/mL.

— patent US20230414771A1, “PREPARATION AND USE OF IMMUNOSTIMULATORY CONJUGATED COMPLEXES FOR TARGETED DELIVERY AND ACTIVATION” (YAFEI SHANGHAI BIOLOGY MEDICINE SCIENCE & TECHNOLOGY CO., …, priority 2020, published 2023)
